US20180333382A1, “PHARMACEUTICAL COMPOSITIONS COMPRISING DGLA AND USE OF SAME” (DS Biopharma Limited, priority 2017, published 2018)

Test: Phase II study: safety (adverse events)
Format: in vivo, human
Conditions: oral, 2 g once daily for 8 weeks
Description: Subjects visited the clinic on 6 occasions: at screening, baseline, week 2, week 4, week 8 (end of treatment/early termination) and week 10 (follow-up). All subjects exited the study at the week 10 visit. The primary efficacy variable was the proportion of patients achieving an IGA of 0 (clear) or 1 (almost clear), and a decrease of at least 2 points in IGA at week 8. Secondary efficacy variables included: IGA at other visits, pruritus (obtained from the SCORAD visual analog scale), EASI, BSA, POEM, DLQI, SCORAD and TEWL (for selected sites only). Safety was assessed through adverse events, physical examination, vital signs and safety laboratory tests (including pregnancy tests for women of childbearing potential). Pharmacokinetic samples were obtained at Baseline (Day 0), week 4 and week 8 visits in order to measure total and free DGLA plasma trough levels. Separate plasma samples were retained for later analysis of total fatty acid profile and interleukin profile.
Laboratory tests were performed at screening, Day 0, Week 4 and Week 8. If Week 8 results indicated a clinically significant change from baseline, laboratory tests were also performed at Week 10. […]
Efficacy was evaluated on the basis of the ITT population and analyses were performed based on the randomized treatment and not on the treatment received. […]

Structure (SMILES): CCCCC/C=C\C/C=C\C/C=C\CCCCCCC(=O)O [DS107G, Dihomo gamma linolenic acid]
- drug related Serious Adverse Events: no drug related Serious Adverse Events
- tolerability: very well tolerated
